Results: patent US20030191342A1, “Process for the production of crystals of a benzoic acid derivative” (priority 2000, published 2003)

What was measured:
[1] = Grain size distribution by laser-type grain size analyzer (Microtrac FRA); format: physicochemical; conditions: crystals dispersed in aqueous Soprophor FL; for Average grain size 10%: 10% point of grain size distribution; for Average grain size 50%: 50% point of grain size distribution; for Average grain size 90%: 90% point of grain size distribution
Description: Grain size distributions of the crystals obtained in Example 1 and Comparative Example 1 were measured. A laser-type grain size analyzer (Microtrac FRA) was used. A 1% aqueous solution of Soprophor FL (3 ml, Rhone-Poulenc) was added with water (15 ml), and an appropriate amount of the crystals obtained in Example 1 or Comparative Example 1 were dispersed in the mixture to obtain a sample dispersion.

[2] = background art statement, no method given; cited from earlier work

Average grain size 10% [1]	Average grain size 50% [1]	Average grain size 90% [1]	SMILES	stability of crystalline form against physical impact [2]	stability against heat, temperature, light and the like [2]
42.74 μm	96.29 μm	268.75 μm	CC1(C)CCC(C)(C)c2cc(NC(=O)c3ccc(C(=O)O)cc3)ccc21 [Methanol/water, 4-[(5,6,7,8-Tetrahydro-5,5,8,8-tetramethyl-2-naphthalenyl)carbamoyl]benzoic acid, reference compound]	–	–
16.38 μm	39.74 μm	86.92 μm	CC1(C)CCC(C)(C)c2cc(NC(=O)c3ccc(C(=O)O)cc3)ccc21 [Ethanol/water, 4-[(5,6,7,8-Tetrahydro-5,5,8,8-tetramethyl-2-naphthalenyl)carbamoyl]benzoic acid]	–	–
–	–	–	CC1(C)CCC(C)(C)c2cc(NC(=O)c3ccc(C(=O)O)cc3)ccc21 [crystal that melts at 193° C., 4-[(5,6,7,8-tetrahydro-5,5,8,8-tetramethyl-2-naphthalenyl)carbamoyl]benzoic acid, reference compound]	crystalline form readily occurs transition by physical impact	–
–	–	–	CC1(C)CCC(C)(C)c2cc(NC(=O)c3ccc(C(=O)O)cc3)ccc21 [crystal that melts at 233° C., 4-[(5,6,7,8-tetrahydro-5,5,8,8-tetramethyl-2-naphthalenyl)carbamoyl]benzoic acid]	high stability	high stability
